Here are results for 14 compounds from ChEMBL document CHEMBL1146808, “Structure-activity relationships of adenosine A3 receptor ligands: new potential therapy for the treatment of glaucoma” (Bioorg Med Chem Lett, 2004).

A word on the IC50: it is the concentration needed to halve the response being measured.

The target of one test is Adenosine receptor A2a (Homo sapiens, UniProt P29274). As to the kind of experiment: biochemical. It counts as cell-based, HEK293.
Another test has as its target T1, Adenosine receptor A1 (Homo sapiens, UniProt P30542).
T1 sequence (P30542 whole entry): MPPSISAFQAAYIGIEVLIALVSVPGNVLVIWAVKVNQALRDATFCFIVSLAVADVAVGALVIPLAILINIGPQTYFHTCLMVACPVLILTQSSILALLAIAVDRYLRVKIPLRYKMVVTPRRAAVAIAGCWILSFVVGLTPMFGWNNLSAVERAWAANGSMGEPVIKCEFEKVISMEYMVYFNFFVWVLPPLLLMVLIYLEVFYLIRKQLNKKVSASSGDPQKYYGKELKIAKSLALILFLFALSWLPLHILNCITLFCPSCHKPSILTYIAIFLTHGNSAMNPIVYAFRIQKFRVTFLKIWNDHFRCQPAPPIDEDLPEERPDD
In words: biochemical. It is filed as cell-based, CHO.

In another test the target is T2, Adenosine receptor A2b (Homo sapiens, UniProt P29275).
T2 sequence (P29275 whole entry): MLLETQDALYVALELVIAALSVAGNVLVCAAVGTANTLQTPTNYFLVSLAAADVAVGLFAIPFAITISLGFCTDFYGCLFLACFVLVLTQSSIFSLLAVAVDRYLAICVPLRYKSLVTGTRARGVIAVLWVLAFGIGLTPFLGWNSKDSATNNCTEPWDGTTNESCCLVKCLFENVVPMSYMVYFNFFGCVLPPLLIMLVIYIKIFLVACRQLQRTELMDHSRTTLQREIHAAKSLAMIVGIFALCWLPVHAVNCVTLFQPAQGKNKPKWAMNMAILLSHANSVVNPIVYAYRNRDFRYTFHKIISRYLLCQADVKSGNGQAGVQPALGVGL
In words: biochemical. It counts as cell-based, HEK293.

In another test the test system is Monkey. It is filed as functional, Cercopithecidae, Eye.

Several values for one entry are separate records, joined by “and”; a condition that tells them apart may be missing. Identical values can stand only once. Some results are limits rather than exact numbers.

Chain of Adenosine receptor A2a (P29274 whole entry): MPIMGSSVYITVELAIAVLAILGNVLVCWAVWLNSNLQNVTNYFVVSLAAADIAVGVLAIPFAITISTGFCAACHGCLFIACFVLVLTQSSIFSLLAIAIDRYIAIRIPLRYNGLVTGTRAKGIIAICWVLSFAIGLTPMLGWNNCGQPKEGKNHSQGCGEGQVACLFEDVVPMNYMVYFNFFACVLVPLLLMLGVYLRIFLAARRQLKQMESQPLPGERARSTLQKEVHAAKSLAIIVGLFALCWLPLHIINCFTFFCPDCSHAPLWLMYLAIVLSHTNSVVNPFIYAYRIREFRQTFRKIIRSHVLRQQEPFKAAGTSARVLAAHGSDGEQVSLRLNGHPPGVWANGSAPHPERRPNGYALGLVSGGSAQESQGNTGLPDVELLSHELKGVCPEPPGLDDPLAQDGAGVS
Description for Adenosine receptor A1: Displacement of specific [3H]DPCPX binding at human adenosine A1 receptor expressed in CHO cells.
Description for Adenosine receptor A2a: Displacement of specific [3H]-CGS- 21680 binding at human adenosine A2A receptor expressed in HEK293 cells
Description for Adenosine receptor A2b: Displacement of specific [3H]DPCPX binding at human adenosine A2B receptor expressed in HEK293 cells.
Description for Monkey: Effect on IOP (intraocular pressure) was determined in monkey; compared to control that is 20.7 mmHg

In turn, `CCCCc1nc2n[nH]cc2c2nc(-c3ccccc3Cl)nn12` showed an IC50 against Adenosine receptor A2a of 0.13 µM.
Take `CCCCc1nc2cccc(Cl)c2c2nc(-c3ccccc3)nn12`: the 50% inhibitory concentration (IC50) against Adenosine receptor A2a was more than 10 µM.
Still for that read-out and setting: for `CCCCc1nc2n[nH]cc2c2nc(-c3ccc(OCC)cc3)nn12` the value was […].
Same read-out and setting: as for `CCCCc1nc2[nH]ncc2c2nc(-c3ccc(C(C)(C)C)cc3)nn12`, the figure is […].
Consider `COCCc1nc2nc[nH]c2c2nc(-c3ccc(-c4ccccc4)cc3)nn12`, for which the IC50 at Adenosine receptor A1, against Adenosine receptor A2a and against Adenosine receptor A2b was more than 10 µM each time.
Regarding `CCCCc1nc2nc[nH]c2c2nc(-c3ccc(-c4ccccc4)cc3)nn12`, the IC50 at Adenosine receptor A1, at Adenosine receptor A2a and at Adenosine receptor A2b was more than 10 µM in each case.
In turn, `CCCCc1nc2ccc(Cl)cc2c2nc(-c3ccc(Br)cc3)nn12` had an IC50 against Adenosine receptor A2a of […].
For `O=C(O)CCc1nc2nc[nH]c2c2nc(-c3ccc(-c4ccccc4)cc3)nn12`, on Adenosine receptor A2a, the IC50 is more than 10 µM.
Still for that read-out and setting: for `CCCCc1nc2n[nH]cc2c2nc(-c3cccc(Cl)c3)nn12` the value was 0.76 µM; for `CCCCc1nc2ccccc2c2nc(-c3ccc(-c4ccccc4)cc3)nn12`, […].
Take `CCCCc1nc2[nH]cnc2c2nc(-c3ccc(C(F)(F)F)cc3)nn12`: the IC50 on Adenosine receptor A1 and on Adenosine receptor A2b was more than 10 µM each time. In the test on Monkey, the Effect was 19.6 mmHg and 19.1 mmHg.
Take `CCCCc1nc2n[nH]cc2c2nc(-c3ccc(Br)cc3)nn12`: at Adenosine receptor A2a, the IC50 was […].
Consider `O=C(O)CCCc1nc2nc[nH]c2c2nc(-c3ccc(Cl)cc3)nn12`, for which the half-maximal inhibitory concentration (IC50) against Adenosine receptor A1, against Adenosine receptor A2a and on Adenosine receptor A2b was more than 10 µM each time.
In the case of `CCCCc1nc2[nH]ncc2c2nc(-c3ccc(CCC)cc3)nn12`, on Adenosine receptor A2a, the 50% inhibitory concentration (IC50) is […].
